The test concerns BsPif1. The following applies: 50 nM enzyme; 67-mer ss oligonucleotide 25 μg/ml; 25 mM Tris-HCl pH 7.5, 50 mM NaCl, 2 mM MgCl2, 2 mM DTT; 37°C.

Turning to `Nc1ncnc2c1ncn2[C@@H]1O[C@H](COP(=O)(O)OP(=O)(O)OP(=O)(O)O)[C@@H](O)[C@H]1O` [ATP], the Km came to 0.2 µM.
